{"source": "patent US8530473B2", "about": "“Tetrahydroquinoxaline urea derivatives as modulators of 11β-hydroxysteroid dehydrogenase type 1” (Sanofi, priority 2009, dated 2013)", "key": {"11βHSD1": {"target": "T1, 11βHSD1 (Homo sapiens, UniProt P28845)", "T1 construct": "made in house; host or cells: S. cerevisiae yeast", "T1 sequence (P28845 whole entry)": "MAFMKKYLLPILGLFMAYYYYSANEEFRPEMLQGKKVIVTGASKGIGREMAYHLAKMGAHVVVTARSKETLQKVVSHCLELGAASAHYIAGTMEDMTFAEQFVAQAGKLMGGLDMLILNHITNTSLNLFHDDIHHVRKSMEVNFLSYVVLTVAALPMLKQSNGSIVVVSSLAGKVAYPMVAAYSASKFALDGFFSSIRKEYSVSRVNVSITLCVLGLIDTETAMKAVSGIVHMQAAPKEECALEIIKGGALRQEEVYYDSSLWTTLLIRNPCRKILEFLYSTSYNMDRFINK", "test": "11βHSD1 Scintillation Proximity Assay (SPA), 384-well format", "assay_type": "biochemical", "settings": "recombinant 11βHSD1 produced in S. cerevisiae; 3H-cortisone and NADPH; cortisol formed measured by SPA", "procedure": "The compounds according to the invention have undergone pharmacological tests for determining their inhibitory effect on the enzyme 11βHSD1, which is involved in lipid metabolism and in glucose metabolism.\nThese tests consisted of measuring the inhibitory activity in vitro of compounds of the invention on the enzyme 11βHSD1 using a Scintillation Proximity Assay (SPA) in 384-well format. The recombinant 1βHSD1 protein was produced in S. cerevisiae yeast. The reaction was carried out by incubating the enzyme in the presence of ^3H-cortisone and NADPH, in the absence or in the presence of increasing concentration of inhibitor. SPA beads coupled to an antimouse antibody, preincubated with an anticortisol antibody, made it possible to measure the amount of cortisol formed during the reaction.\nThe inhibitory activity with respect to the enzyme 11βHSD1 is given by the concentration that inhibits 50% of the activity of 11βHSD1 (IC50)."}, "healthy volunteers": {"test_system": "healthy volunteers", "settings": "after seven days of treatment, healthy volunteers (Rauz et al. 2001); cited from earlier work"}}, "note": "Counter-ions that a name gives are not always drawn."}
{"smiles": "NC(=O)[C@]12CC3CC(C1)[C@H](NC(=O)N1CCN(c4ccc(N5CCC(N6CC[C@@H](O)C6)CC5)cn4)c4ccccc41)C(C3)C2", "note": "(as salt: HCl) [Compound 9, Trans 4-[4-((R)-3-hydroxy-pyrrolidin-1-yl)-3,4,5,6,-tetrahydro-2H-[1,3′]bipyridinyl-6′-yl]-3,4-dihydro-2H-quinoxaline-1-carboxylic acid (5-carbamoyl-adamantan-2-yl)-amide]", "values": [{"measurement": "melting point", "result": 191, "unit": "°C"}]}
{"smiles": "NC(=O)C12CC3CC(C1)C(NC(=O)N1CCN(c4ccc(N5CCC(N6CCC(F)(F)C6)CC5)cn4)c4ccccc41)C(C3)C2", "note": "(stereo not drawn) (as salt: HCl) [Compound 10, Trans 4-[4-(3,3-difluoro-pyrrolidin-1-yl)-3,4,5,6-tetrahydro-2H-[1,3′]bipyridinyl-6′-yl]-3,4-dihydro-2H-quinoxaline-1-carboxylic acid (5-carbamoyl-adamantan-2-yl)-amide]", "values": [{"measurement": "melting point", "result": 196, "unit": "°C"}]}
{"smiles": "NC(=O)C12CC3CC(C1)C(NC(=O)N1CCN(c4ccc(N5CCC(N6CCC[C@@H]6CO)CC5)cn4)c4ccccc41)C(C3)C2", "note": "(stereo in doubt) [Compound 6, Trans 4-[4-((R)-2-hydroxymethyl-pyrrolidin-1-yl)-3,4,5,6-tetrahydro-2H-[1,3′]bipyridinyl-6′-yl]-3,4-dihydro-2H-quinoxaline-1-carboxylic acid (5-carbamoyl-adamantan-2-yl)-amide]", "values": [{"measurement": "IC50", "setting": "11βHSD1", "result": 4, "unit": "nM"}]}
{"smiles": "NC(=O)C12CC3CC(C1)C(NC(=O)N1CCN(c4ccc(N5CCC(N6CCC[C@H]6CO)CC5)cn4)c4ccccc41)C(C3)C2", "note": "(stereo in doubt) [Compound 7, Trans 4-[4-((S)-2-hydroxymethyl-pyrrolidin-1-yl)-3,4,5,6-tetrahydro-2H-[1,3′]bipyridinyl-6′-yl]-3,4-dihydro-2H-quinoxaline-1-carboxylic acid (5-carbamoyl-adamantan-2-yl)-amide]", "values": [{"measurement": "IC50", "setting": "11βHSD1", "result": 3, "unit": "nM"}]}
{"smiles": "NC(=O)C12CC3CC(C1)C(NC(=O)N1CCN(c4ccc(N5CCC(N6CC[C@H](O)C6)CC5)cn4)c4ccccc41)C(C3)C2", "note": "(stereo in doubt) [Compound 8, Trans 4-[4-((S)-3-hydroxy-pyrrolidin-1-yl)-3,4,5,6-tetrahydro-2H-[1,3′]bipyridinyl-6′-yl]-3,4-dihydro-2H-quinoxaline-1-carboxylic acid (5-carbamoyl-adamantan-2-yl)-amide]", "values": [{"measurement": "IC50", "setting": "11βHSD1", "result": 6, "unit": "nM"}]}
{"smiles": "C[Si](C)(C)CN1CCN(c2ccc(N3CCN(C(=O)NC4C5CC6CC4CC(O)(C6)C5)c4ccccc43)nc2)CC1", "note": "(stereo not drawn) [Compound 1, Trans 4-[5-(4-trimethylsilanylmethyl-piperazin-1-yl)-pyridin-2-yl]-3,4-dihydro-2H-quinoxaline-1-carboxylic acid (5-hydroxy-adamantan-2-yl)-amide]", "values": [{"measurement": "IC50", "setting": "11βHSD1", "result": 7, "unit": "nM"}]}
{"smiles": "CC(C)(C)ON=C1CCN(c2ccc(N3CCN(C(=O)N[C@H]4C5CC6CC4C[C@@](O)(C6)C5)c4ccccc43)nc2)CC1", "note": "[Compound 2, Trans 4-(4-tert-butoxyimino-3,4,5,6-tetrahydro-2H-[1,3′]bipyridinyl-6′-yl)-3,4-dihydro-2H-quinoxaline-1-carboxylic acid (5-hydroxy-adamantan-2-yl)-amide]", "values": [{"measurement": "melting point", "result": "110 to 113", "unit": "°C"}, {"measurement": "IC50", "setting": "11βHSD1", "result": 23, "unit": "nM"}]}
{"smiles": "C[Si](C)(C)CCS(=O)(=O)N1CCN(c2ccc(N3CCN(C(=O)NC4C5CC6CC4CC(O)(C6)C5)c4ccccc43)nc2)CC1", "note": "(stereo not drawn) [Compound 3, Trans 4-{5-[4-(2-trimethylsilanyl-ethanesulfonyl)-piperazin-1-yl]-pyridin-2-yl}-3,4-dihydro-2H-quinoxaline-1-carboxylic acid (5-hydroxy-adamantan-2-yl)-amide]", "values": [{"measurement": "melting point", "result": "107 to 120", "unit": "°C"}, {"measurement": "IC50", "setting": "11βHSD1", "result": 10, "unit": "nM"}]}
{"smiles": "NC(=O)[C@]12CC3CC(C1)[C@H](NC(=O)N1CCN(c4ccc(N5CCN(CC6CC6(F)F)CC5)cn4)c4ccccc41)C(C3)C2", "note": "(stereo partly drawn) [Compound 4, Trans 4-{5-[4-(2,2-difluoro-cyclopropylmethyl)-piperazin-1-yl]-pyridin-2-yl}-3,4-dihydro-2H-quinoxaline-1-carboxylic acid (5-carbamoyl-adamantan-2-yl)-amide]", "values": [{"measurement": "melting point", "result": 206, "unit": "°C"}, {"measurement": "IC50", "setting": "11βHSD1", "result": 3, "unit": "nM"}]}
{"smiles": "NC(=O)[C@]12CC3CC(C1)[C@H](NC(=O)N1CCN(c4ccc(N5CCC(N6CCS(=O)(=O)CC6)CC5)cn4)c4ccccc41)C(C3)C2", "note": "[Compound 5, Trans 4-[4-(1,1-dioxo-1lambda6-thiomorpholin-4-yl)-3,4,5,6-tetrahydro-2H-[1,3′]bipyridinyl-6′-yl]-3,4-dihydro-2H-quinoxaline-1-carboxylic acid (5-carbamoyl-adamantan-2-yl)-amide]", "values": [{"measurement": "melting point", "result": "160 to 200", "unit": "°C"}, {"measurement": "IC50", "setting": "11βHSD1", "result": 4, "unit": "nM"}]}
{"smiles": "NC(=O)[C@]12CC3CC(C1)[C@H](NC(=O)N1CCN(c4ccc(N5CCC(N6CC[C@@H](O)C6)CC5)cn4)c4ccccc41)C(C3)C2", "note": "[Compound 9, Trans 4-[4-((R)-3-hydroxy-pyrrolidin-1-yl)-3,4,5,6,-tetrahydro-2H-[1,3′]bipyridinyl-6′-yl]-3,4-dihydro-2H-quinoxaline-1-carboxylic acid (5-carbamoyl-adamantan-2-yl)-amide]", "values": [{"measurement": "IC50", "setting": "11βHSD1", "result": 2, "unit": "nM"}]}
{"smiles": "NC(=O)C12CC3CC(C1)C(NC(=O)N1CCN(c4ccc(N5CCC(N6CCC(F)(F)C6)CC5)cn4)c4ccccc41)C(C3)C2", "note": "(stereo not drawn) [Compound 10, Trans 4-[4-(3,3-difluoro-pyrrolidin-1-yl)-3,4,5,6-tetrahydro-2H-[1,3′]bipyridinyl-6′-yl]-3,4-dihydro-2H-quinoxaline-1-carboxylic acid (5-carbamoyl-adamantan-2-yl)-amide]", "values": [{"measurement": "IC50", "setting": "11βHSD1", "result": 2, "unit": "nM"}]}
{"smiles": "Cl.NC(=O)[C@]12CC3CC(C1)[C@H](NC(=O)N1CCN(c4ccc(N5CCC6(CC5)CC6(F)F)cn4)c4ccccc41)C(C3)C2", "note": "[Compound 11, Trans 4-[5-(1,1-difluoro-6-aza-spiro[2.5]oct-6-yl)-pyridin-2-yl]-3,4-dihydro-2H-quinoxaline-1-carboxylic acid (5-carbamoyl-adamantan-2-yl)-amide]", "values": [{"measurement": "melting point", "result": "134 to 170", "unit": "°C"}, {"measurement": "IC50", "setting": "11βHSD1", "result": 3, "unit": "nM"}]}
{"smiles": "NC(=O)[C@]12CC3CC(C1)[C@H](NC(=O)N1CCN(c4ccc(N5CCC6(CC5)CC6C(=O)O)cn4)c4ccccc41)C(C3)C2", "note": "(stereo partly drawn) [Compound 12, trans-6-{6-[4-(5-Carbamoyl-adamantan-2-ylcarbamoyl)-3,4-dihydro-2H-quinoxalin-1-yl]-pyridin-3-yl}-6-aza-spiro[2.5]octane-1-carboxylic acid]", "values": [{"measurement": "melting point", "result": "145 to 160", "unit": "°C"}, {"measurement": "IC50", "setting": "11βHSD1", "result": 6, "unit": "nM"}]}
{"smiles": "C[Si]1(c2ccccc2)CCN(c2ccc(N3CCN(C(=O)N[C@H]4C5CC6CC4C[C@@](C(N)=O)(C6)C5)c4ccccc43)nc2)CC1", "note": "[Compound 13, Trans 4-[5-(4-methyl-4-phenyl-[1,4]azasilinan-1-yl)-pyridin-2-yl]-3,4-dihydro-2H-quinoxaline-1-carboxylic acid (5-carbamoyl-adamantan-2-yl)-amide]", "values": [{"measurement": "melting point", "result": "106 to 108", "unit": "°C"}, {"measurement": "IC50", "setting": "11βHSD1", "result": 25, "unit": "nM"}]}
{"smiles": "C[Si]1(C)CCN(c2ccc(N3CCN(C(=O)NC4C5CC6CC4CC(C(N)=O)(C6)C5)c4ccccc43)nc2)CC1", "note": "(stereo not drawn) [Compound 14, Trans 4-[5-(4,4-dimethyl-[1,4]azasilinan-1-yl)-pyridin-2-yl]-3,4-dihydro-2H-quinoxaline-1-carboxylic acid (5-carbamoyl-adamantan-2-yl)-amide]", "values": [{"measurement": "melting point", "result": "213 to 216", "unit": "°C"}, {"measurement": "IC50", "setting": "11βHSD1", "result": 12, "unit": "nM"}]}
{"smiles": "CC1(C)[C@@H](OC(=O)CCC(=O)O)CC[C@]2(C)[C@H]3C(=O)C=C4[C@@H]5C[C@@](C)(C(=O)O)CC[C@]5(C)CC[C@@]4(C)[C@]3(C)CC[C@@H]12", "note": "[carbenoxolone]", "values": [{"measurement": "IOP is reduced by", "setting": "healthy volunteers", "result": 18, "unit": "%"}]}
